Laboratory results from patent publication US10238657B2, “Heterocyclic compounds for treating psoriasis” (JS INNOPHARM (SHANGHAI LTD.), priority 2015, dated 2019).
In brackets after ≈: the same amount, converted by molar mass.

Legend:
guinea pig ear epidermis = assay: Propranolole hydrochloride-induced psoriasis in guinea pig model; assay type: in vivo; conditions: 200 μl on both ears twice daily, 7 days
Description: Except for those in Saline control group, guinea pigs were treated with propranolole hydrochloride cream (5% w/w, 200 μl) uniformly applied on the back of both ears twice daily for four successive weeks. After four weeks, the […] were divided into several groups, namely, blank cream group, calcipotriol group, and four testing cream groups with Compound 5 at concentration of 0.5%, 1%, 2%, and 4% (w/w)), respectively. The guinea pigs in Saline control group were treated with saline on the back of both ears; the guinea pigs in other groups were treated with corresponding cream on the back of both ears (200 μl) twice daily for 7 successive days. The guinea pigs were examined during the experiment period and sacrificed 1 hour after the last dosing.

[1] = system: chick chorioallantoic membrane; assay: Chick chorioallantoic membrane (CAM) angiogenesis model; assay type: in vivo, chicken; conditions: 100 μg/egg
Description: Fresh eggs were incubated for 6 successive days under 37° C. and 50% humidity. On the 6th day, live eggs were identified and taken out for window-opening. First, the chorioallantoic membrane was located with illumination. Droplets of Compound No. […] After air dry, the filter paper was placed on the chorioallantoic membrane gently without contacting big vessels. The window was sealed with a transparent adhesive tape. The eggs were incubated for 48 hours continuously. The transparent adhesive tape was then uncovered. The window was enlarged and photos were taken under a dissecting microscope (FIGS. 2 A-B). New vessels were counted based on the number of blood vessel branch points in each photo. Inhibitory rate=100−[(number of new blood vessels in treatment group at 24 h)/(number of new blood vessels in treatment group at 0 h)]/[(number of blood vessels in negative control group at 24 h)/(number of blood vessels in negative control group at 0 h)]×100%.

mouse tail epidermis = assay: Effect on mouse tail epidermis (granular layer of tail scales); assay type: in vivo; conditions: 100 μl once daily, 7 days, female mice, n = 10
Description: 70 female mice were randomly divided into several groups: (a) saline control group, saline was used in each administration; (b) blank cream group, blank cream was used in each administration; (c) calcipotriol control group, calcipotriol in cream (5% w/w) was used in each administration; (d) four testing groups, Compound No 5 in cream at 0.5%, 1%, 2%, and 4% (w/w), respectively, was used in each administration. 100 μl of corresponding treatment was applied to the same position on the tail of the mice once daily for seven successive days. The mice were sacrificed 1 hour after the last application. The treated skin parts were taken for pathological examination, and the tail scales of each mouse was assessed under a microscope. The number of scales having a granular layer in every 100 scales was counted, and the result was expressed as percentage.

[2] = system: mouse vaginal epidermal cells; assay: Effect on mitosis of mouse vaginal epidermal cells; assay type: in vivo; conditions: 25 μl intravaginal once daily, 3 days, estradiol-treated mice, n = 6
Description: Except for the saline control group, sexually mature female mice were injected with estradiol subcutaneously at a dosage of 35 mg/kg for 3 successive days. On the fourth day, in-estrus mice were selected with vaginal smear. The mice were randomly divided into several groups: (a) saline control group, saline was used in each administration; (b) blank cream group, blank cream was used in each administration; (c) calcipotriol control group, calcipotriol in cream (5% w/w) was used in each administration; (d) four testing groups, Compound No 5 in cream at concentration of 0.5%, 1%, 2%, and 4% (w/w), respectively, was used in each application. 25 μl corresponding treatment was injected into the vagina of the mice once daily for 3 successive days. Colchicine (15 mg/Kg) was intraperitoneally injected 2 hours after the last dosing. The mice were sacrificed 6 hours after the injection of colchicine. The vaginal tissue was taken out for pathological examination. The number of mitosis in one hundred basal cells was counted, which was named as the mitotic index.

HaCaT cells [3] = assay: In-vitro screening with MTT method, inhibition of proliferation of HaCaT cells; assay type: cell-based, human; conditions: Homo sapiens, HaCaT, about 48 hours incubation
Description: Compound No. 5 was dissolved in DMSO, and gradiently diluted with PBS to prepare solutions at concentration of 1000 μg/ml, 100 μg/ml, 10 μg/ml, 1 μg/ml, 0.1 μg/ml, and 0.01 μg/ml, respectively. Cis-platinum (CDDP) was used as positive control, and sample solutions were prepared with the same method. The sample solutions were added into a 96-well plate placed with the growth phase human immortalized keratinocyte (HaCaT) cells (Pharmacology Laboratory of Shanghai Institute of Pharmaceutical Industry), and were incubated for about 48 hours. The cell relative survival rate was determined by the MTT method, and calculated according to the following formula based on the light absorption value at […]. Cell relative survival rate=(Light absorption value of sample treatment group—background light absorption value)/(Light absorption value of DMSO treatment group—background light absorption value).

HaCaT cells [4] = assay: Morphological examination of the effect on HaCaT cell differentiation; assay type: cell-based, human
Description: HaCaT cells were cultured in DMEM culture medium containing 10% FBS under 37° C. and 5% CO2 concentration. When reaching 80% of the culture bottle area and after digestion by 0.25% trypsin, the cells were adjusted to a concentration of 4×10^4/ml and moved to a 6-well plate respectively (containing sterilized slide). Compound solutions were added. The cells were applied to the corresponding wells, and a blank control group (saline) was set. Both the sample groups and the control group were placed in a cell incubator at 37° C. Immumohistochemical staining was conducted after incubation at 48 h.
The imagine in FIG. 1A is dark brown, indicating large amount of keratin is present. […] Compound No. 5 underwent cornification (positive result).

Structure (SMILES): Cc1cnc(Nc2ccc(F)cc2Cl)nc1-c1cc2n(c1)CCN([C@H](CO)c1cccc(Cl)c1)C2=O [Compound 5, (S)-7-(2-((2-chloro-4-fluorophenyl)amino)-5-methylpyrimidin-4-yl)-2-(1-(3-chlorophenyl)-2-hydroxyethyl)-3,4-dihydropyrrolo[1,2-a]pyrazin-1(2H)-one]
- Epidermal thickness (μm) (guinea pig ear epidermis; cream 0.5% w/w): 190.31 ± 17.89 μm
- Epidermal thickness (μm) (guinea pig ear epidermis; cream 1% w/w): 180.74 ± 11.05 μm
- Epidermal thickness (μm) (guinea pig ear epidermis; cream 2% w/w): 156.59 ± 13.25 μm
- Epidermal thickness (μm) (guinea pig ear epidermis; cream 4% w/w): 128.96 ± 13.61 μm
- Number of new blood vessels 0 h ([1]; 0 h, n = 3): 18.83 ± 5.60
- Number of new blood vessels 48 h ([1]; 48 h, n = 3): 16.00 ± 5.73
- Inhibitory rate (%) ([1]; 48 h, versus PBS group): 125.76%
- Scales quantity in granular layer * 100% (mouse tail epidermis; cream 0.5% (w/w)): 42.40 ± 3.03 %
- Scales quantity in granular layer * 100% (mouse tail epidermis; cream 1% (w/w)): 47.00 ± 5.29 %
- Scales quantity in granular layer * 100% (mouse tail epidermis; cream 2% (w/w)): 50.80 ± 7.50 %
- Scales quantity in granular layer * 100% (mouse tail epidermis; cream 4% (w/w)): 58.80 ± 7.64 %
- Mitotic cell number/total cell number (%) ([2]; cream 0.5% (w/w)): 18.33 ± 1.86 %
- Mitotic cell number/total cell number (%) ([2]; cream 1% (w/w)): 15.00 ± 3.35 %
- Mitotic cell number/total cell number (%) ([2]; cream 2% (w/w)): 14.83 ± 2.48 %
- Mitotic cell number/total cell number (%) ([2]; cream 4% (w/w)): 14.50 ± 3.62 %
- IC50 (HaCaT cells [3]): 544 µg/mL (≈ 1030 µM)
- Differentiation of HaCaT cells (keratin, cornification) (HaCaT cells [4]; 100 μg/ml, 48 h, inverted microscope x200, FIG. 1A): induced differentiation of HaCaT cells
- Test Results, effect on HaCat cell differentiation (HaCaT cells [4]; 48 h incubation, immunohistochemical staining): Positive
